Key:
[1] = system: non-selective σ receptors; experiment: Sigma receptor binding assay, non-selective σ ([3H]1,3-di(2-tolyl)guanidine displacement); conditions: test compound 10 μM; rat cerebral cortex
Experimental: (§1) Sigma receptors are binding sites that interact with several psychoactive agents. Inhibition of specific binding of known ligands to sigma receptors (σ1 and σ2) was used to determine the selectivity of test compounds. The assays were performed as described previously in the literature (non-selective σ: Shirayama, Y., et al. Eur. J. Pharmacol. (1993), 237: 117-126. σ1: Ganapathy, M. E., et al. J. Pharmacol. Exp. Ther. (1999) 289: 251-260. σ2: Bowen, M. D., et al. Mol. Neuropharmacol. (1993) 3: 117-126.). The origin of the non-selective a receptors was rat cerebral cortex. The origin of the (σ1 and σ2 receptors were Jurkat cells and rat cerebral cortex, respectively.
(§2) Affinity for the receptors was determined by competitive displacement of specific ligands (8 nM of [^3H] 1,3-di(2-tolyl)guanidine for non-selective σ, 8 nM of [^3H](+)pentazocine for σ1 and 5 nM of [^3H]1,3-di(2-tolyl)guanidine for σ2) by test compounds. Nonspecific binding was determined by addition of an excess of an unlabelled binder (10 μM haloperidol).
(§3) The results are expressed as a percent inhibition of control specific binding (100−((measured specific binding/control specific binding)×100)) obtained in the presence of test compound (10 μM) as shown in Table 1. In addition, Table 1 includes data for the selected compounds from the voltage-clamp in Xenopus laevis oocytes assay.

human α7 NNR = target: T1, human α7 NNR (Homo sapiens, UniProt P36544); experiment: Two-electrode voltage-clamp in Xenopus laevis oocytes, potentiation of ACh-evoked α7 currents; type: cell-based; conditions: for Voltage-Clamp in Xenopus laevis Oocytes % max (degree of normalized potentiation): 0.1 mM ACh, normalized to reference PAM at 10 μM = 100%, ACh alone = 0%; for EC50: potentiation of 0.1 mM ACh-evoked α7 currents
T1 construct: expressed in transfected cells; host or cells: Xenopus laevis oocytes (cRNA injection)
T1 sequence (P36544 23-502): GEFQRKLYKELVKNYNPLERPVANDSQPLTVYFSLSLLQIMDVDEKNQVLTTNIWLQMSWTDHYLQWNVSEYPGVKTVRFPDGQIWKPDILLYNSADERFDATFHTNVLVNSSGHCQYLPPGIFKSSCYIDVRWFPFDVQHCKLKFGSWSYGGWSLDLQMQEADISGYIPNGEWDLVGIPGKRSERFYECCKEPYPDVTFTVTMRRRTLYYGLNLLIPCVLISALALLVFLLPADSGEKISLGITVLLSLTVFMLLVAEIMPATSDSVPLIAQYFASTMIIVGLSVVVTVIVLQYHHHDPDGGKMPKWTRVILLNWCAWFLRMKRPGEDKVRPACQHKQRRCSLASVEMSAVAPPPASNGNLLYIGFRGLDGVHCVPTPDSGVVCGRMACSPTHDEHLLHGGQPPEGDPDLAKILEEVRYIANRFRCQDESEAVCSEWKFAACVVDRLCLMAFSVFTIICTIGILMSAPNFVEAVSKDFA
Experimental: X. laevis oocytes were prepared for electrophysiological experiments as described in the literature (see for example. Briggs, C. A. el al, Neuropharmacology. 1995. 34: 583-590; Briggs, C. A. et al., Neuropharmacology, 1998, 37: 1095-1102, which are incorporated herein by reference). In brief, three to four lobes from ovaries of female adult X. laevis frogs were removed and defolliculated after treatment with collagenase type 1A (2 mg/mL; Sigma) prepared in low-Ca^2+ Barth's solution (90 mM NaCl, 1.0 mM KCl, 0.66 mM NaNO3, 2.4 mM NaHCO3, 10 mM HEPES, 2.5 mM sodium pyruvate, 0.82 mM MgCl2, and 0.5% (v/v) penicillin-streptomycin solution, pH=7.55, Sigma) for about 1.5 hours to about 2 hours at about 18° C. under constant agitation to obtain isolated oocytes.
The isolated oocytes were injected with about 4 ng to about 6 ng of human α7 NNR cRNA, kept at about 18° C. in a humidified incubator in modified Barth's solution (90 mM NaCl, 1.0 mM KCl, 0.66 mM NaNO3, 2.4 mM NaHCO3, 10 mM HEPES, 2.5 mM sodium pyruvate, 0.74 mM CaCl2, 0.82 mM MgCl2, 0.5% (v/v) penicillin-streptomycin solution, pH 7.55) and used about 2 to 7 days after injection. Responses were measured by two-electrode voltage clamp using a Parallel Oocyte Electrophysiology Test Station (Abbott, Abbott Park, Ill.) (see for example, Trumbull, J. D., et al., Receptors Channels, 2003, 9: 19-28, which is incorporated herein by reference). During recordings, the oocytes were bathed in Ba^2+-OR2 solution (90 mM NaCl, 2.5 mM KCl, 2.5 mM BaCl2, 1.0 mM MgCl2, 5.0 mM HEPES, and 0.0005 mM atropine, pH 7.4) to prevent activation of Ca^2+-dependent currents and held at −60 mV at room temperature (about 20° C.). Test compounds were pre-applied alone for […] and subsequently in the presence of 0.1 mM acetylcholine (ACh) as the agonist. The data were expressed as percentage potentiation of the acetylcholine-evoked current normalized to the response of reference PAM (at 10 μM, N′-[(2Z)-3-(2,2-difluoro-1,3-benzodioxol-5-yl)-5-methyl-1,3-thiazol-2(3 H)-ylidene]-N,N-dimethylurea) taken as 100% and the response to submaximum ACh without any PAM as 0%.

σ2 receptors = target: T2, σ2 receptors (Rattus norvegicus, UniProt Q5U3Y7); experiment: Sigma receptor binding assay, σ2 ([3H]1,3-di(2-tolyl)guanidine displacement); conditions: test compound 10 μM; rat cerebral cortex
T2 construct: The origin of the (σ1 and σ2 receptors were Jurkat cells and rat cerebral cortex, respectively); from tissue; host or cells: rat cerebral cortex
T2 sequence (Q5U3Y7 1-176): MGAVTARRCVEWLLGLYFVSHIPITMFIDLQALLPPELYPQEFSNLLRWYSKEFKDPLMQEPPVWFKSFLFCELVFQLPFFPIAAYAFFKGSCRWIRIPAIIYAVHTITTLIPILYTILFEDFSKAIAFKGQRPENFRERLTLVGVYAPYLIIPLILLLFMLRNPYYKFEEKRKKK
Experimental: as §1, §2, §3

σ1 receptors = target: T3, σ1 receptors (Homo sapiens, UniProt Q99720); experiment: Sigma receptor binding assay, σ1 ([3H](+)pentazocine displacement, Jurkat cells); conditions: test compound 10 μM
T3 construct: The origin of the (σ1 and σ2 receptors were Jurkat cells and rat cerebral cortex, respectively); endogenous in cells; host or cells: Jurkat cells
T3 sequence (Q99720 whole entry): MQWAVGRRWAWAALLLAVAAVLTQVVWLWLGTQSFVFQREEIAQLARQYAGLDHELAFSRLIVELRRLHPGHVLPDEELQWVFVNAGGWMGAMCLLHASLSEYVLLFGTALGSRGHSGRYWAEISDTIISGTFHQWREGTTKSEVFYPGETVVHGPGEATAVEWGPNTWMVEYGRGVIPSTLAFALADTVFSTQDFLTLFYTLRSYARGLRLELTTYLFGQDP
Experimental: as §1, §2, §3

sensory gating T:C ratio = experiment: Sensory gating deficit in DBA/2 mice (N40 gating) assay; type: in vivo; conditions: dose 0.01 μmol/kg
Source text: Sensory gating is a basic central nervous system function that facilitates attending to important stimuli, and ignoring irrelevant background noise. A practical example of sensory gating is the ability to follow a conversation at a loud party. An experimental measure of sensory gating is the suppression of brainwave (evoked potential) responding to repetitive auditory stimuli. Schizophrenic patients can not suppress responding to repetitive stimuli, and are therefore considered to have sensory gating deficiencies.
DBA/2 mice (20-25 g, 8-10 week, Harlan) were used for gating experiments and handled in accordance with approved Association for Assessment and Accreditation of Laboratory Animal Care procedures. Mice were given food and water ad libitum and maintained on a 12-hour light/dark cycle (lights on at 0600 hours).
The surgical techniques employed were similar to those previously described (Connolly P M, et al. (2003) Brain Res 992(1):85-95). […]
To obtain EEG and evoked potentials (EPs), unanesthetized mice were recorded in acoustically isolated chambers (Med Associates). EEG biosignals were recorded from freely moving mice using flexible cable tethers and electrical swivels (Plastics One) and amplified with differential AC amplifiers (Grass Instrument Division, Astro-Med, West Warwick, R.I. USA). […]

[2] = system: formalin-induced nociceptive behavior; experiment: Formalin-induced persistent nociceptive behavior assay; type: in vivo; conditions: mice; 10 mg/kg subcutaneously 10 minutes prior to formalin; phase 2, 20-45 minutes post formalin
Experimental: Nociception was assessed using the formalin test. The mice were placed in open plexiglass observation chambers for 30 minutes to allow them to acclimate to their surroundings: then they were removed for formalin administration. Mice were gently restrained while the dorsum of the hind paw was injected with 20 μL of 2.5% formalin into the plantar surface of the right hind paw with a 30-gauge needle. The animals were returned to the chambers and nociceptive behavior was observed immediately after formalin injection. Mirrors were placed in each chamber to enable unhindered observation. Nociceptive behavior was quantified as the time licking the injected paw for continuous 5 minutes (phase 1) and 20-45 minutes (phase 2), following formalin injection. Formalin-induced flinching/licking behavior was biphasic. The initial acute phase (phase 1.0-5 minutes) was followed by a relatively short quiescent period, which was then followed by a prolonged tonic response (phase 2, 20-45 minutes).

α7 NNRs = α7 NNRs (Homo sapiens, UniProt P36544); conditions: IMR-32 cells
Chain of α7 NNRs (P36544 23-502): as the sequence (P36544 23-502) above
Experimental: Although cell types such as IMR-32 neuroblastoma and neurons are known to contain several nicotinic receptor subunits, α7 selective agonists in the present assay selectively stimulate calcium responses only in the presence of PAMs. Any suitable selective α7 agonist can be used.
IMR-32 neuroblastoma cells (ATCC) were grown to confluency in 162 cm^2 tissue culture flasks in minimum essential media supplemented with 10% fetal bovine serum and 1 mM sodium pyruvate, 0.1 mM non-essential amino acids and 1% antibiotic-antimycotic. […]
Calcium flux was measured using a calcium-3 assay kit (Molecular Devices, Sunnyvale, Calif.) or Fluo-4 (Invitrogen, Carlsbad, Calif.). […] Fluorescence measurements were read simultaneously from all the wells by a Fluorometric Imaging Plate Reader (FLIPR) at an excitation wavelength of 480 nm and an emission wavelength of 520 nm. Baseline fluorescence was measured for the first 10 seconds at which 50 μL of 3× concentrations of modulator/test compounds were added to the cell plate and incubated for three to five minutes. The fluorescence intensity was captured every second for the first 1 minute followed by every 2-5 seconds for an additional two to four minutes. This procedure was followed by 50 μL of 4× concentration of agonist and readings were taken for a period of three to five minutes as described above. […]

SMILES	% Inhibition of Binding at 10 μM σ [1]	Voltage-Clamp in Xenopus laevis Oocytes % max (degree of normalized potentiation) (human α7 NNR)	EC50 (human α7 NNR)	inhibition at 10 µM (σ2 receptors)	inhibition at 10 µM (σ1 receptors)	reduction of T:C (test:conditioned) ratios compared to vehicle (sensory gating T:C ratio)	reduction in licking duration (nociceptive behavior), phase 2 [2]	calcium response to agonist in the presence of an allosteric modulator (α7 NNRs)
Nc1ccc(CNC(=O)c2ccc(SC(F)(F)F)cc2)cc1 [Example 19, N-(4-aminobenzyl)-4-[(trifluoromethyl)thio]benzamide]	6%	120%	5400 nM	–	–	–	–	–
CN(C)c1ccc(CNC(=O)c2ccc(SC(F)(F)F)cc2)cc1 [Example 17, N-[4-(dimethylamino)benzyl]-4-[(trifluoromethyl)thio]benzamide]	–	94%	180 nM	-1%	8%	–	–	–
O=C(NCc1cccc(-n2cccn2)c1)c1ccc(SC(F)(F)F)cc1 [Example 12, N-[3-(1H-pyrazol-1-yl)benzyl]-4-[(trifluoromethyl)thio]benzamide]	–	61%	3700 nM	–	–	–	–	–
CNc1ccc(CNC(=O)c2ccc(SC(F)F)cc2)cc1 [Example 22, 4-[(difluoromethyl)thio]-N-[4-(methylamino)benzyl]benzamide]	–	115%	1200 nM	-4%	21%	–	–	–
CNc1ccc(CNC(=O)c2ccc(SC(F)(F)F)cc2)cc1 [Example 20, N-[4-(methylamino)benzyl]-4-[(trifluoromethyl)thio]benzamide]	39%	99%	97 nM	–	–	23.7±8.9%	68%	–
CCN1C[C@]2(COC(=O)c3ccccc3N3C(=O)C[C@H](C)C3=O)CC[C@H](OC)[C@@]34[C@@H]5C[C@H]6[C@H](OC)[C@@H]5[C@](O)(C[C@@H]6OC)[C@@](O)([C@@H](OC)[C@H]23)[C@@H]14 [methyllycaconitine]	–	–	–	–	–	–	–	abolished the response
O=C(Cc1ccc(NCC2CC2)cc1)Nc1ccc(SC(F)F)cc1 [Example 43, 2-{4-[(cyclopropylmethyl)amino]phenyl}-N-{4-[(difluoromethyl)thio]phenyl}acetamide]	–	2%	> 10000 nM	34%	84%	–	–	–
